Like-named read-outs stand apart in the source and are kept apart here.
Experiments:
[1] = test system: mice transplanted with myeloma cells ARH-77; experiment: Bone resorption inhibition test in multiple myeloma model animals (urinary deoxypyridinoline); assay type: in vivo, C.B-17/lcr-scid Jcl mice; conditions: 0.1 mg/kg intravenous once; urine on day 4 after administration; mice with paralysis in hind limbs; vs solvent group
Procedure: On the next day, 10^6 cells/mouse of myeloma cells ARH-77 were transplanted into the left cardiac ventricle of each animal under anesthesia with pentobarbital. […] On the day 4 after the administration, a physiological saline load (30 ml/kg po) was burdened to these mice and the urine was collected after 6 hours. Since the mice suffering from paralysis in hind limbs could hardly urinate, such an animal was subjected to abdominal section and the urine was directly collected from the bladder. Normal animals (sham-operated group), into the left cardiac ventricle of which PBS (0.1 ml/animal) was injected as a substitute for the myeloma cells, were treated in the same manner. The urinary deoxypyridinoline (Dpyr) level was measured by using a [sequence]-D kit (Amersham) and corrected with the urinary creatinine level.

[2] = test system: mice transplanted with myeloma cells ARH-77; experiment: Lumbar bone mineral density decrease test in multiple myeloma model animals; assay type: in vivo
Procedure: Similar to Example 1, mice suffering from paralysis in hind limbs were selected 3 weeks after the transplantation of myeloma cells. Then an aqueous solution of the compound A monohydrate (3 mg/kg) (compound A group) and the solvent alone (solvent group) were orally administered once a day for 6 days repeatedly. On the next day of the completion of the administration, a 10% formalin solution was refluxed from the left cardiac ventricle under anesthesia with pentobarbital and the lumber vertebrae was taken out. The bone mineral density in the bone tissue was measured by the DXA method. As Example 1, the normal mice (sham-operated group) were also subjected to the measurement of the bone mineral density.
Two weeks after the transplantation of the myeloma cells, the compound A was orally administered for 14 days in doses of 0.03, 0.3 and 3 mg/kg. Then the bone mineral density was measured as in the above (1) but selecting animals suffering from paralysis in hind limbs during the administration period.

[3] = test system: human myeloma cells ARH-77; experiment: Myeloma cell proliferation inhibitory test; assay type: cell-based
Procedure: A 5×10^4 cells/ml cell dilution of human myeloma cells […], which had been incubated in a culture flask, was prepared by using an RPMI1640 medium (containing 10% of EBS), pipetted in 1 ml portions into a 24-well plate and then incubated in a CO2 incubator at 37° C. After 6 hours, 100 μl portions of the aqueous solution of the compound A were added to give final concentrations of 0.3 to 1000 μM (three-fold serial, duplicate samples). After incubating in the CO2 incubator at 37° C. for 4 days, the viable cells were counted with the use of a Cell Counting Kit (Dojin Kagaku). By referring the value of the control prepared by adding PBS as to the cell proliferation inhibitory ratio of […], the inhibitory ratios were calculated.

[4] = test system: patient with multiple myeloma; experiment: Clinical test 1 (multiple myeloma and bone lesions, one patient); assay type: in vivo, human; conditions: for M protein (IgD): blood
[5] = test system: patients with multiple myeloma; conditions: for systemic bone salt mass, change ratio to the data before the administration: 5 patients
patients = conditions: intravenous 90 mg/4 weeks, cited from earlier work
murine model of myeloma = conditions: cited from earlier work
[6] = test system: patients with multiple myeloma; conditions: 30 mg/day oral; cited from earlier work
[7] = 3 mg oral once a day, after 8 weeks
[8] = 6 mg oral once a day, after 24 weeks

## O=P(O)(O)C(O)(Cc1cnc2ccccn12)P(=O)(O)O [compound A, 1-hydroxy-2-(imidazo[1,2-a]pyridin-3-yl)ethane-1,1-bisphosphonic acid]
[1]
  inhibition of the increase in urinary Dpyr level (bone resorption marker): significantly inhibited
[2]; 3 mg/kg oral once a day for 6 days, DXA method, mice with paralysis in hind limbs
  bone mineral density of lumbar vertebrae: 24.7 ± 0.9 mg/cm^2.
[2]; oral administration (6 days 3 mg/kg; 14 days 0.03, 0.3, 3 mg/kg)
  lumbar bone mineral density compared with solvent group: higher bone mineral density than the solvent group
[3]; 100 μM, 4 days incubation, ARH-77
  cell proliferation inhibitory ratio: 84.2%
[3]; 0.3 to 1000 μM, 4 days
  inhibition of ARH-77 cell proliferation: dose-dependent manner
[4]; [7]
  Dpyr level relative to level before the administration: about 60%
  M protein (IgD): 7.7 mg/dL
[4]; 3 mg oral once a day, after 2 weeks
  M protein (IgD): 11.6 mg/dL
[4]; 3 mg oral once a day, after 4 weeks
  M protein (IgD): 9.8 mg/dL
[4]; 3 mg oral once a day, after 20 weeks
  M protein (IgD): 5.9 mg/dL
[4]; before administration
  M protein (IgD): 25.8 mg/dL
[5]; 6 mg oral once a day for 24 weeks, 6 patients
  side effects related to the compound: No side effect
[5]; 6 mg oral once a day, after 12 weeks
  systemic bone salt mass, change ratio to the data before the administration: 0.61%
[5]; [8]
  narcotic score (analgesic type × administration frequency): 0.60±1.342
  systemic bone salt mass, change ratio to the data before the administration: 1.18%
[5]; 6 mg oral once a day, before vs after 24 weeks
  EORTC questionnaire on QOL: improvement was observed in pain, fatigue, shortness of breath, inappetence, constipation, economic conditions
[5]; 6 mg oral once a day, one of the patients
  bone lesions in bone radiographs: obvious amelioration in bone lesions
[5]; before the administration
  narcotic score (analgesic type × administration frequency): 1.67±3.615

## NCCC(O)(P(=O)(O)O)P(=O)(O)O [pamidronate]
[1]
  inhibition of the increase in urinary Dpyr level (bone resorption marker): no significant inhibition
patients; after 4 weeks
  Dpyr level relative to level before the administration: exceeded 80%
patients; week 2
  Dpyr level relative to level before the administration: about 60%
Murine model of myeloma
  cytotoxic effect within the bone marrow: evidence of a cytotoxic effect within the bone marrow
  effect on tumor growth / tumor burden: no effect on tumor growth was demonstrated

## O=P(O)(O)C(O)(Cc1cccnc1)P(=O)(O)O [risedronate]
[1]
  inhibition of the increase in urinary Dpyr level (bone resorption marker): no significant inhibition
Murine model of myeloma
  bone destruction: clear reduction in bone destruction
  effect on tumor growth / tumor burden: no effect on tumor burden
[6]
  bone mineral density: elevated bone mineral density
  bone resorption: suppressed bone resorption
